Key:
[1] = Material properties (granulation, stickiness, sieving) of levamlodipine besylate hydrate composition granules; assay type: physicochemical; details: granules of given crystalline water content, finishing of granulation, 10 mesh
Description: In order to meet the requirements for the production of solid-form preparation plain tablets, the preparation is a direct compression method. As such, the granules of the active pharmaceutical ingredient need to pass through a sieve below 10 mesh to ensure content uniformity. […] A hydrate composition with a crystalline water content of less than 5.8% can meet the requirements of the finishing of granulation. […] The crystalline water content of the hydrate being controlled below 5.5% can better meet the requirements of making pharmaceutical preparations. 1. Production of Samples: the method of Example 2 is used to prepare samples with corresponding water content.

[2] = Acute toxicity (LD50, Bliss method) of levamlodipine besylate hydrate composition tablets; details: Kunming, mouse, in vivo
Procedure: In this experiment the tablet formulation is the one of Example 5, in which the crystalline water content of the levamlodipine besylate hydrate composition is 5.3%.
In this experiment, the LD50 is measured by two administration routes. […] Animals: Kunming mice, half male and half […], each weighing 18-28 g, 10 animals in each group, fasted for 16 hours before use. Dosage: Oral administration: […], 0.6580 (g/kg), intraperitoneal administration: 0.7743, 0.6582, 0.5594, 0.4755, 0.4042 (g/kg) dose gradient: 0.85. Route of administration: experimental methods of oral administration and intraperitoneal administration, 100 mice are selected, fasted for 16 hours, and randomly divided into 10 groups. Oral administration to the first 5 groups, and the dose being 0.35 ml/10 g; intraperitoneal administration to the latter 5 groups, and the dose being 0.2 ml/10 g.

[3] = Thermal stability of hydrate compositions, 45° C. oven for 5 days, impurities by HPLC; assay type: physicochemical; details: for Impurity Content, impurities before heating of sample: 0 days; for Impurity Content, sample placed in 45° C. oven for 5 days: amber glass bottles
Procedure: Using the method of Example 2 of the present invention, compositions with different crystalline water content can be prepared and used as samples to test thermal stability.
The samples are placed in amber glass bottles, placed in an oven, and the temperature is adjusted to 45° C., and the relevant substances are tested after settled for 5 days.
The test method is as follows: The chromatographic conditions and system applicability test: Use octadecylsilane-bonded silica gel as the filler; methanol-0.03 mol/L potassium dihydrogen phosphate solution (75:25) as the mobile phase, the detection wavelength is 238 nm, the number of theoretical plates should be no less than 500 calculated in levamlodipine.
Preparation of the Test Solution: Take about 17 mg of this product, precisely weigh it, put it in a 100 ml volumetric flask, add a mobile phase to dissolve and dilute to the mark, shake well, precisely measure 5 ml, put it in a 25 ml volumetric flask, add a mobile phase to the mark, shake well to obtain the solution.
Determination Method: Precisely measure 10 μl of the reference solution and the test solution, inject into the liquid chromatography machine, record the chromatogram, measure the peak area, and calculate by the external standard method.

## CCOC(=O)C1=C(COCCN)NC(C)=C(C(=O)OC)[C@@H]1c1ccccc1Cl.O=S(=O)(O)c1ccccc1 [5.5%]
[1]
  Sieving Performance: have no stickiness
  Stickiness: no stickiness

## CCOC(=O)C1=C(COCCN)NC(C)=C(C(=O)OC)[C@@H]1c1ccccc1Cl.O=S(=O)(O)c1ccccc1 [5.8%]
[1]
  Sieving Performance: have essentially no
  Stickiness: essentially no

## CCOC(=O)C1=C(COCCN)NC(C)=C(C(=O)OC)[C@@H]1c1ccccc1Cl.O=S(=O)(O)c1ccccc1 [5.9%]
[1]
  Sieving Performance: are less sticky

## CCOC(=O)C1=C(COCCN)NC(C)=C(C(=O)OC)[C@@H]1c1ccccc1Cl.O=S(=O)(O)c1ccccc1 [6.0%]
[1]
  Sieving Performance: stick together even

## CCOC(=O)C1=C(COCCN)NC(C)=C(C(=O)OC)[C@@H]1c1ccccc1Cl.O=S(=O)(O)c1ccccc1 [(4 s)-2-[(2-aminoethoxy)methyl]-4-(2-chlorophenyl)-6-methyl-1,4-dihydro-3,5-pyridinedicarboxylic acid-3-ethyl ester, 5-methyl ester benzenesulfonate hydrate]
[2]; ip
  LD50 at 7 days: 16 ± 1.38 mg/kg
[2]; po
  LD50 at 7 days: 24.9 ± 1.75 mg/kg

## CCOC(=O)C1=C(COCCN)NC(C)=C(C(=O)OC)[C@@H]1c1ccccc1Cl.O=S(=O)(O)c1ccccc1 [Sample 1]
[3]
  Impurity Content, impurities before heating of sample: None
[3]; 45° C. oven, 5 days
  change in the appearance: no obvious change
  Impurity Content, sample placed in 45° C. oven for 5 days: 0.07%

## CCOC(=O)C1=C(COCCN)NC(C)=C(C(=O)OC)[C@@H]1c1ccccc1Cl.O=S(=O)(O)c1ccccc1 [Sample 2]
[3]
  Impurity Content, impurities before heating of sample: None
[3]; 45° C. oven, 5 days
  Impurity Content, sample placed in 45° C. oven for 5 days: None

## CCOC(=O)C1=C(COCCN)NC(C)=C(C(=O)OC)[C@@H]1c1ccccc1Cl.O=S(=O)(O)c1ccccc1 [Sample 3]
[3]
  Impurity Content, impurities before heating of sample: None
[3]; 45° C. oven, 5 days
  Impurity Content, sample placed in 45° C. oven for 5 days: None

Source: US12648937B2, “Composition containing levamlodipine besylate hydrate and its preparation method” (SHIHUIDA PHARMACEUTICALS GROUP (JILIN) LTD., priority 2019, dated 2026)
